Measurements as given in PMC3951324, “Side Chain Hydrophobicity Modulates Therapeutic Activity and Membrane Selectivity of Antimicrobial Peptide Mastoparan-X” (PLoS ONE, 2014).
Ends that are not written are not given here.

What was measured:
[1] = system: Escherichia coli, strain INV-α; test: Determination of minimal inhibitory concentration (MIC); assay type: cell-based; settings: LB medium, 37°C, 20 h, shaking, peptide 0.05–50 µM, absorbance 570 nm, triplicates
Description: (§1) A stock dilution series with ten points, ranging from 1 µM to 1 mM, was prepared in sterile PBS from freshly dissolved peptides. The dilution series was dispensed in triplicates in 96-deepwell microtiter plates (VWR Denmark, Herlev, Denmark), with 15 µl in each well. Multidispensing with electronic pipettes (Biohit, Tåstrup, Denmark) was used throughout. Lactococcus lactis, strain MG1363 (ATCC, LGC Standards AB, Boras, Sweden) and Escherichia coli, strain INV-α (Invitrogen, Nærum, Denmark) were grown in M9 (Sigma Aldrich, Brøndby, Denmark) and LB medium (Difco, BD Biosciences, Brøndby Denmark), respectively. A single colony was grown overnight at 30°C and 37°C for L.lactis and E.coli respectively. The next day, a fresh culture was started with a twenty-fold dilution of the cells and grown for exactly 60 min (optical density was approximately 0.4 at 570 nm). The cell culture was diluted (300 fold for L.lactis and 1000 fold for E.coli) before adding 150 µl to microtiter plates already containing 15 µl peptide solution and 135 µl fresh medium. […] Plates with L.lactis were sealed with lid and parafilm, and plates with E.coli were sealed with a gas-permeable tape (VWR Denmark, Herlev, Denmark). The plates were incubated at the respective temperatures for 20 hours with shaking (150 rpm). For each measurement, 100 µl of the cell culture was transferred to clear, flat-bottomed microtiter plates, and the absorbance at 570 nm was determined using a Victor3 plate reader (Perkin Elmer, Skovlunde, Denmark). The measurement was conducted in triplicates.

[2] = system: Lactococcus lactis, strain MG1363; test: as above; assay type: cell-based; settings: strain MG1363, M9 medium, 30°C, 20 h, shaking; peptide 0.05–50 µM; absorbance 570 nm; triplicates
Description: as §1

[3] = Pyrene-cmc assay (micelle/aggregate formation); assay type: physicochemical
Description: Fluorescence excitation spectra were collected using an Olis modernized SLM8000 fluorescence spectrophotometer equipped with single-grating emission and double-grating excitation monochromator. The fluorometer was equipped with photon counter detectors. Pyrene was used to probe micellation as it is sensitive to environment hydrophobicity. Peptides were incubated in concentrations of 0.1–1000 µM in 10 mM HEPES, 100 mM sodium chloride, pH 7.4 buffer containing 75 nM pyrene. Samples were incubated for 2 h at 60°C followed by incubation overnight at room temperature and kept in the dark until measured. Measurements were carried out at 37°C. Excitation spectra were collected using emission wavelength 390 nm and 16 nm emission slit sizes. Excitation spectra were scanned in range 310–350 nm with excitation slits sizes of 0.5 nm. The excitation spectrum shift denotes the formation of micelles/aggregates (hydrophobic cavity), which is gauged by intensity ratio R = I339/I333 [29],[30]. The plot of R versus the detergent/peptide concentration, c, measures the partitioning of pyrene into the formed micelles/aggregates. The intensity ratio is fitted using the sigmoidal function [drawing 1] , where R0 and ΔR denote the initial and change in intensity ratio, respectively. α and ci denote the normalized slope and peptide concentration at which curve inflection occurs, respectively. […]

[4] = system: human red blood cells (RBCs); test: Haemolysis assay; assay type: cell-based
Text: All Fmoc (9H-fluoren-9-yl-methyloxycarbonyl) L-amino acids and HATU (1-[Bis(dimethylamino)methylene]-1H-1,2,3-triazolo[4,5-b]pyridinium 3-oxid hexafluorophosphate, N-[(Dimethylamino)-1H-1,2,3-triazolo-[4,5-b]pyridin-1-ylmethylene]-N-methylmethanaminium hexafluorophosphate N-oxide) were purchased from GLS China (GL Biochem, Shanghai, China). Fmoc-2-amino-decanoic acid was obtained from Watanabe Chemical Industries, Ltd (Hiroshima, Japan). Lys and Trp were side-chain-protected as tert-butoxycarbonyl, Asn was sidechain protected with trityl. Tentagel resin was purchased from NovaBiochem (Merck, Darmstadt, Germany). TFA (trifluoroacetic acid), TIS (triisopropylsilane), HEPES (N-(2-hydroxyethyl)piperazine-N-(2-ethanesulfonic acid)), 2,4,6-collidine and pyrene were purchased from Sigma-Aldrich (Brøndby, Denmark). Pyridine, sodium hydroxide pellets and sodium chloride was purchased from J.T. Baker Chemicals (Phillipsburg, NJ, USA). Filter supports and Hamilton extrusion syringes, POPG (1-palmitoyl-2-oleoyl-sn-glycero-3-[phospho-rac-(1-glycerol)] sodium salt), and POPC (1-palmitoyl-2-oleoyl-sn-glycero-3-phosphocholine) were purchased from Avanti Polar Lipids (Alabaster, AL). All compounds were used without further purification. Membrane filters for extrusion (100 nm pore size, polycarbonate) were purchased from Whatman (Maidstone, UK). Cuvettes (4×10 mm, quartz, Suprasil) were purchased from Hellma (Müllheim, Germany). Purified human erythrocytes for the haemolysis studies were provided by Bioneer (Hørsholm, Denmark), and were stored at 4°C for a maximum of three days before use.
The assay was conducted as described in Etzerodt et al..

[5] = obtained via tryptophan fluorescence measurements; cited from earlier work
[6] = Mode of peptide-membrane interaction gauged by ITC; assay type: physicochemical; settings: 20 mM POPC∶POPG (3∶1) LUVs (8 mM for OAMPX) injected 38×1 µL into 100 µM peptide, 37°C, triplicates
Description: Lipid stock solutions of POPC and POPG were prepared in chloroform∶methanol (9∶1). Mixtures of POPC∶POPG (3∶1) were prepared and the organic solvent was evaporated under a gentle stream of nitrogen. The lipid films were kept in vacuum (P<0.1 Pa) overnight in order to remove the residual solvent. Buffer containing 10 mM HEPES and 100 mM sodium chloride (pH 7.4) was added to the lipid films, and they were hydrated for 60 min followed by extrusion through 100 nm using an Avanti mini-extruder. Dynamic Light Scattering (DLS, Brookhaven Instrument Corporation, ZetaPALS) was used for measuring the liposome size distribution. The effective lipid concentration was determined by inductively coupled plasma atomic emission spectroscopy (ICP-AES Vista AX, Varian).
The nature of the peptides' membrane interaction was studied as a function of lipid/peptide ratio (L/P) by ITC (iTC200, Microcal). All experiments were conducted by injection of 20 mM LUVs into 100 µM peptide solution. For OAMPX, 8 mM LUVs were used. The experiments were conducted as 38×1 µL injections, T = 37°C, and the speed of the stirrer was 1000 rpms. All titrations were conducted in triplicates.

INWKGIAAMAKKLL-NH2 [MPX, mastoparan X, reference compound]
MIC (E. coli) [1]: 8 ± 3 µM | MIC (L. lactis) [2]: 2.5 ± 0.5 µM | Critical micelle concentration (cmc) ([3]; pyrene (75 nM) fluorescence excitation shift I339/I333, 10 mM HEPES, 100 mM NaCl, pH 7.4, peptide 0.1–1000 µM, 2 h 60°C then overnight RT, measured at 37°C, cmc = onset of sigmoid, triplicates): >1000 µM | cmc ([3]; pyrene assay, no shift in pyrene excitation spectrum in covered concentration range, pH 7.4, 37°C): > 1 mM | % haemolysis ([4]; human RBCs, 50 µM peptide): 15% | H5, concentration at which 5% haemolysis has been obtained ([4]; purified human erythrocytes, assay as in Etzerodt et al. [14]): 18 ± 2 µM | effective charge (previous result) [5]: 1.7 | endpoint of the reversible (secondary) process, lipid/peptide ratio L/P [6]: ~21
